# What was measured:
# Conditions in all cases: three weeks after treatment
# Amaranthus tuberculatus [1] = experiment: Pre-emergence herbicidal evaluation, AMATA; format: in vivo
# Source text: (§1) The treated pots are then placed on greenhouse benches, watered and cared for in accordance with conventional greenhouse procedures.
# Galium aparine [2] = experiment: Pre-emergence herbicidal evaluation, GALAP; format: in vivo
# Source text: as §1
# Alopecurus myosuroides [3] = experiment: Pre-emergence herbicidal evaluation, ALOMY; format: in vivo
# Source text: as §1
# Apera spica venti [4] = experiment: Pre-emergence herbicidal evaluation, APESV; format: in vivo
# Source text: as §1
# Echinochloa crus-galli [5] = experiment: Pre-emergence herbicidal evaluation, ECHCG; format: in vivo
# Source text: as §1
# Setaria viridis [6] = experiment: Pre-emergence herbicidal evaluation, SETVI; format: in vivo
# Source text: as §1
# Lolium perenne [7] = experiment: Pre-emergence herbicidal evaluation, LOLPE; format: in vivo
# Source text: as §1
# Triticum aestivum [8] = experiment: Pre-emergence herbicidal evaluation, TRZAW; format: in vivo
# Source text: as §1
# Hordeum vulgare [9] = experiment: Pre-emergence herbicidal evaluation, HORVW; format: in vivo
# Source text: as §1
# Zea mays [10] = experiment: Pre-emergence herbicidal evaluation, ZEAMX; format: in vivo
# Source text: as §1
# Glycine max [11] = experiment: Pre-emergence herbicidal evaluation, GLXMA; format: in vivo
# Source text: as §1
# Oryza sativum [12] = experiment: Pre-emergence herbicidal evaluation, ORYSA; format: in vivo
# Source text: as §1
# Amaranthus tuberculatus [13] = experiment: Post-emergence herbicidal evaluation, AMATA; format: in vivo
# Galium aparine [14] = experiment: Post-emergence herbicidal evaluation, GALAP
# Alopecurus myosuroides [15] = experiment: Post-emergence herbicidal evaluation, ALOMY
# Apera spica venti [16] = experiment: Post-emergence herbicidal evaluation, APESV
# Echinochloa crus-galli [17] = experiment: Post-emergence herbicidal evaluation, ECHCG
# Procedure: (§2) The compounds of the invention are tested for pre- and post-emergence herbicidal activity.
# (§3) Each pot is examined three weeks after treatment and phytotoxicity is assessed according to the rating system set forth below.
# (§4) These acetone solutions are diluted with water and the resulting formulations applied at dosage levels equivalent of about 0.4 to 0.1 kg per hectare of test compound per pot. After spraying the plants are placed on greenhouse benches and are cared for in the usual manner, commensurate with conventional greenhouse practices.
# Setaria viridis [18] = experiment: Post-emergence herbicidal evaluation, SETVI
# Procedure: as §2, §3, §4
# Lolium perenne [19] = experiment: Post-emergence herbicidal evaluation, LOLPE
# Triticum aestivum [20] = experiment: Post-emergence herbicidal evaluation, TRZAW
# Hordeum vulgare [21] = experiment: Post-emergence herbicidal evaluation, HORVW
# Zea mays [22] = experiment: Post-emergence herbicidal evaluation, ZEAMX
# Glycine max [23] = experiment: Post-emergence herbicidal evaluation, GLXMA
# Oryza sativum [24] = experiment: Post-emergence herbicidal evaluation, ORYSA
compound,measurement,setting,value
CCN(C(=O)COc1nnc(C(F)(F)F)s1)C1=CC(C)(C)CC(C)=C1 [Example 1],phytotoxicity rating AMATA,Amaranthus tuberculatus [1]; 0.100 kg/ha,0 (0 - No effect)
same,phytotoxicity rating AMATA,Amaranthus tuberculatus [1]; 0.200 kg/ha,3 (3 - Moderate effect)
same,phytotoxicity rating AMATA,Amaranthus tuberculatus [1]; 0.400 kg/ha,9 (9 - Complete kill)
same,phytotoxicity rating AMATA,Amaranthus tuberculatus [1]; 0.800 kg/ha,9 (9 - Complete kill)
same,phytotoxicity rating GALAP,Galium aparine [2]; 0.100 kg/ha,0 (0 - No effect)
same,phytotoxicity rating GALAP,Galium aparine [2]; 0.200 kg/ha,4 (4 - Injury)
same,phytotoxicity rating GALAP,Galium aparine [2]; 0.400 kg/ha,4 (4 - Injury)
same,phytotoxicity rating GALAP,Galium aparine [2]; 0.800 kg/ha,4 (4 - Injury)
same,phytotoxicity rating ALOMY,Alopecurus myosuroides [3]; 0.100 kg/ha,2 (2 - Slight effect)
same,phytotoxicity rating ALOMY,Alopecurus myosuroides [3]; 0.200 kg/ha,3 (3 - Moderate effect)
same,phytotoxicity rating ALOMY,Alopecurus myosuroides [3]; 0.400 kg/ha,9 (9 - Complete kill)
same,phytotoxicity rating ALOMY,Alopecurus myosuroides [3]; 0.800 kg/ha,7 (7 - Good herbicidal effect)
same,phytotoxicity rating APESV,Apera spica venti [4]; 0.100 kg/ha,6 (6 - Herbicidal effect)
same,phytotoxicity rating APESV,Apera spica venti [4]; 0.200 kg/ha,8 (8 - Approaching complete kill)
same,phytotoxicity rating APESV,Apera spica venti [4]; 0.400 kg/ha,9 (9 - Complete kill)
same,phytotoxicity rating APESV,Apera spica venti [4]; 0.800 kg/ha,9 (9 - Complete kill)
same,phytotoxicity rating ECHCG,Echinochloa crus-galli [5]; 0.100 kg/ha,4 (4 - Injury)
same,phytotoxicity rating ECHCG,Echinochloa crus-galli [5]; 0.200 kg/ha,8 (8 - Approaching complete kill)
same,phytotoxicity rating ECHCG,Echinochloa crus-galli [5]; 0.400 kg/ha,9 (9 - Complete kill)
same,phytotoxicity rating ECHCG,Echinochloa crus-galli [5]; 0.800 kg/ha,9 (9 - Complete kill)
same,phytotoxicity rating SETVI,Setaria viridis [6]; 0.100 kg/ha,4 (4 - Injury)
same,phytotoxicity rating SETVI,Setaria viridis [6]; 0.200 kg/ha,7 (7 - Good herbicidal effect)
same,phytotoxicity rating SETVI,Setaria viridis [6]; 0.400 kg/ha,8 (8 - Approaching complete kill)
same,phytotoxicity rating SETVI,Setaria viridis [6]; 0.800 kg/ha,8 (8 - Approaching complete kill)
same,phytotoxicity rating LOLPE,Lolium perenne [7]; 0.100 kg/ha,2 (2 - Slight effect)
same,phytotoxicity rating LOLPE,Lolium perenne [7]; 0.200 kg/ha,3 (3 - Moderate effect)
same,phytotoxicity rating LOLPE,Lolium perenne [7]; 0.400 kg/ha,9 (9 - Complete kill)
same,phytotoxicity rating LOLPE,Lolium perenne [7]; 0.800 kg/ha,9 (9 - Complete kill)
same,phytotoxicity rating TRZAW,Triticum aestivum [8]; 0.100 kg/ha,0 (0 - No effect)
same,phytotoxicity rating TRZAW,Triticum aestivum [8]; 0.200 kg/ha,0 (0 - No effect)
same,phytotoxicity rating TRZAW,Triticum aestivum [8]; 0.400 kg/ha,2 (2 - Slight effect)
same,phytotoxicity rating TRZAW,Triticum aestivum [8]; 0.800 kg/ha,4 (4 - Injury)
same,phytotoxicity rating HORVW,Hordeum vulgare [9]; 0.100 kg/ha,2 (2 - Slight effect)
same,phytotoxicity rating HORVW,Hordeum vulgare [9]; 0.200 kg/ha,2 (2 - Slight effect)
same,phytotoxicity rating HORVW,Hordeum vulgare [9]; 0.400 kg/ha,4 (4 - Injury)
same,phytotoxicity rating HORVW,Hordeum vulgare [9]; 0.800 kg/ha,4 (4 - Injury)
same,phytotoxicity rating ZEAMX,Zea mays [10]; 0.100 kg/ha,0 (0 - No effect)
same,phytotoxicity rating ZEAMX,Zea mays [10]; 0.200 kg/ha,0 (0 - No effect)
same,phytotoxicity rating ZEAMX,Zea mays [10]; 0.400 kg/ha,2 (2 - Slight effect)
same,phytotoxicity rating ZEAMX,Zea mays [10]; 0.800 kg/ha,4 (4 - Injury)
same,phytotoxicity rating GLXMA,Glycine max [11]; 0.100 kg/ha,0 (0 - No effect)
same,phytotoxicity rating GLXMA,Glycine max [11]; 0.200 kg/ha,0 (0 - No effect)
same,phytotoxicity rating GLXMA,Glycine max [11]; 0.400 kg/ha,2 (2 - Slight effect)
same,phytotoxicity rating GLXMA,Glycine max [11]; 0.800 kg/ha,2 (2 - Slight effect)
same,phytotoxicity rating ORYSA,Oryza sativum [12]; 0.100 kg/ha,0 (0 - No effect)
same,phytotoxicity rating ORYSA,Oryza sativum [12]; 0.200 kg/ha,0 (0 - No effect)
same,phytotoxicity rating ORYSA,Oryza sativum [12]; 0.400 kg/ha,3 (3 - Moderate effect)
same,phytotoxicity rating AMATA,Amaranthus tuberculatus [13]; 0.100 kg/ha,0 (0 - No effect)
same,phytotoxicity rating AMATA,Amaranthus tuberculatus [13]; 0.200 kg/ha,0 (0 - No effect)
same,phytotoxicity rating AMATA,Amaranthus tuberculatus [13]; 0.400 kg/ha,0 (0 - No effect)
same,phytotoxicity rating GALAP,Galium aparine [14]; 0.100 kg/ha,0 (0 - No effect)
same,phytotoxicity rating GALAP,Galium aparine [14]; 0.200 kg/ha,0 (0 - No effect)
same,phytotoxicity rating GALAP,Galium aparine [14]; 0.400 kg/ha,1 (1 - Trace effect)
same,phytotoxicity rating ALOMY,Alopecurus myosuroides [15]; 0.100 kg/ha,6 (6 - Herbicidal effect)
same,phytotoxicity rating ALOMY,Alopecurus myosuroides [15]; 0.200 kg/ha,6 (6 - Herbicidal effect)
same,phytotoxicity rating ALOMY,Alopecurus myosuroides [15]; 0.400 kg/ha,8 (8 - Approaching complete kill)
same,phytotoxicity rating APESV,Apera spica venti [16]; 0.100 kg/ha,5 (5 - Definite injury)
same,phytotoxicity rating APESV,Apera spica venti [16]; 0.200 kg/ha,8 (8 - Approaching complete kill)
same,phytotoxicity rating APESV,Apera spica venti [16]; 0.400 kg/ha,8 (8 - Approaching complete kill)
same,phytotoxicity rating ECHCG,Echinochloa crus-galli [17]; 0.100 kg/ha,2 (2 - Slight effect)
same,phytotoxicity rating ECHCG,Echinochloa crus-galli [17]; 0.200 kg/ha,4 (4 - Injury)
same,phytotoxicity rating ECHCG,Echinochloa crus-galli [17]; 0.400 kg/ha,7 (7 - Good herbicidal effect)
same,phytotoxicity rating SETVI,Setaria viridis [18]; 0.100 kg/ha,0 (0 - No effect)
same,phytotoxicity rating SETVI,Setaria viridis [18]; 0.200 kg/ha,2 (2 - Slight effect)
same,phytotoxicity rating SETVI,Setaria viridis [18]; 0.400 kg/ha,3 (3 - Moderate effect)
same,phytotoxicity rating LOLPE,Lolium perenne [19]; 0.100 kg/ha,6 (6 - Herbicidal effect)
same,phytotoxicity rating LOLPE,Lolium perenne [19]; 0.200 kg/ha,8 (8 - Approaching complete kill)
same,phytotoxicity rating LOLPE,Lolium perenne [19]; 0.400 kg/ha,8 (8 - Approaching complete kill)
same,phytotoxicity rating TRZAW,Triticum aestivum [20]; 0.100 kg/ha,0 (0 - No effect)
same,phytotoxicity rating TRZAW,Triticum aestivum [20]; 0.200 kg/ha,0 (0 - No effect)
same,phytotoxicity rating TRZAW,Triticum aestivum [20]; 0.400 kg/ha,1 (1 - Trace effect)
same,phytotoxicity rating HORVW,Hordeum vulgare [21]; 0.100 kg/ha,0 (0 - No effect)
same,phytotoxicity rating HORVW,Hordeum vulgare [21]; 0.200 kg/ha,0 (0 - No effect)
same,phytotoxicity rating HORVW,Hordeum vulgare [21]; 0.400 kg/ha,0 (0 - No effect)
same,phytotoxicity rating ZEAMX,Zea mays [22]; 0.100 kg/ha,0 (0 - No effect)
same,phytotoxicity rating ZEAMX,Zea mays [22]; 0.200 kg/ha,0 (0 - No effect)
same,phytotoxicity rating ZEAMX,Zea mays [22]; 0.400 kg/ha,0 (0 - No effect)
same,phytotoxicity rating GLXMA,Glycine max [23]; 0.100 kg/ha,4 (4 - Injury)
same,phytotoxicity rating GLXMA,Glycine max [23]; 0.200 kg/ha,5 (5 - Definite injury)
same,phytotoxicity rating GLXMA,Glycine max [23]; 0.400 kg/ha,4 (4 - Injury)
same,phytotoxicity rating ORYSA,Oryza sativum [24]; 0.100 kg/ha,0 (0 - No effect)
same,phytotoxicity rating ORYSA,Oryza sativum [24]; 0.200 kg/ha,0 (0 - No effect)
same,phytotoxicity rating ORYSA,Oryza sativum [24]; 0.400 kg/ha,3 (3 - Moderate effect)
